Measurements as given in patent US11339171B2, “MDM2 inhibitors” (Gan & Lee Pharmaceuticals, priority 2017, dated 2022).
Values joined by “and” are separate entries in the source; they are usually repeats but may differ in a detail not shown here. Equal values may be shown once. Read-outs that look alike come from different tables or passages of the source.

Assays:
MDM2 = molecular target: T1, MDM2 (Homo sapiens, UniProt Q00987); test: Inhibition test of MDM2-P53 (GST-MDM2, Biotin-P53, Anti-GST-Tb, SA-XL665); assay type: binding
T1 construct: made in house
Summary of the method: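 HTRF-type assay using 4 nM GST-MDM2 (final), Biotin-P53, SA-XL665 and anti-GST-Tb in PBS with 0.1% BSA, 5 mM DTT and 1 mM AEBSF. Compounds in 5-fold serial dilutions over twelve points; incubation 90 min at 25° C with shaking before plate-reader read-out.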

[1] = Pharmacokinetics in ICR mice after intravenous and intragastric administration; assay type: in vivo; conditions: for MRT last: read-out: MRT(0-t); for MRT inf: read-out: MRT(0-∞); for Tmax: read-out: Tmax; for Vd: read-out: Vz; for half-life: read-out: t1/2 (converted)
Summary of the method: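 Plasma concentration-time data, quantified by LC-MS/MS with a 1 ng/mL lower limit, gave AUC, t1/2, MRT, Cmax, Tmax, bioavailability, Vz and clearance. Overnight-fasted male ICR mice (three per route) received 2 mg/kg intravenously or 5 mg/kg intragastrically.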

[2] = tested on: human osteosarcoma cell line SJSA-1; test: Inhibition of proliferation of human osteosarcoma cell line SJSA-1 (DAPI staining, In Cell Analyzer); conditions: Homo sapiens, SJSA-1, 72 h, read-out: IC50 (nM), inhibitory activity on proliferation of human osteosarcoma cell line SJSA-1, SJSA-1, incubated 72 h
[3] = ICR mice, IV 2 mg/kg, individual animals 301-303, 2 mg/kg
[4] = ICR mice, PO 5 mg/kg, individual animals 401-403, 5 mg/kg
[5] = male, ICR, mouse, plasma, iv, 2 mg/kg, ICR mice, IV 2 mg/kg, individual animals 301-303
[6] = male, ICR, mouse, plasma, iv, 2 mg/kg, ICR mice, IV 2 mg/kg, mean of 3 animals
[7] = male, ICR, mouse, plasma, po, 5 mg/kg, ICR mice, PO 5 mg/kg, individual animals 401-403
[8] = male, ICR, mouse, plasma, po, 5 mg/kg, ICR mice, PO 5 mg/kg, mean of 3 animals

T1 sequence (Q00987 whole entry): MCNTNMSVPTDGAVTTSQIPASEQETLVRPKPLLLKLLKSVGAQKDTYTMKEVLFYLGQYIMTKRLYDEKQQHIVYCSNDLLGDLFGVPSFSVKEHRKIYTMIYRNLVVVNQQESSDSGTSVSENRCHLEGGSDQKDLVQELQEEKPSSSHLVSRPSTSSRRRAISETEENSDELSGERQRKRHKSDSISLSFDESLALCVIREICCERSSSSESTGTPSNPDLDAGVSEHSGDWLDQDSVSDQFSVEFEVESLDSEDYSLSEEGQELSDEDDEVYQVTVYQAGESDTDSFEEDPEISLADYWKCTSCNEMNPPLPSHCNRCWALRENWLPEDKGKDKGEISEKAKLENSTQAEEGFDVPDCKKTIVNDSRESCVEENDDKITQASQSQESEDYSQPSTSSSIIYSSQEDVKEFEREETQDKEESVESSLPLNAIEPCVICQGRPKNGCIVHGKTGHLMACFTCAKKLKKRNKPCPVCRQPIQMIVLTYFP

COc1nc(N(C)C)ncc1-c1nc2c(n1C(C)C)[C@@]1(C(=O)Nc3cc(Cl)ccc31)N(c1cc(Cl)cnc1C)C2=O [Example S-135, (S)-6-chloro-5′-(5-chloro-2-methylpyridin-3-yl)-2′-(2-(dimethylamino)-4-methoxypyrimidin-5-yl)-3′-isopropyl-3′H-spiro[dihydroindole-3,4′-pyrrolo[3,4-d]imidazole]-2,6′(5′H)-dione]
IC50 (MDM2): 1.36 nM
AUC(0-t) [1, 3]: 7341.09 ng·h/mL and 6495.01 ng·h/mL
AUC(0-∞) [1, 3]: 7977.92 ng·h/mL and 7378.29 ng·h/mL
CL [1, 3]: 4.18 mL/min/kg and 4.52 mL/min/kg
Cmax [1, 3]: 3518.53 ng/mL and 3314.60 ng/mL
MRT(0-t) [1, 3]: 1.66 h and 1.70 h
MRT(0-∞) [1, 3]: 2.21 h and 2.57 h
Vz [1, 3]: 0.64 L/kg and 0.80 L/kg
t1/2 [1, 3]: 1.78 h and 2.03 h
F* ([1]; ICR mice, PO 5 mg/kg vs IV 2 mg/kg, mean): 48.91%
AUC(0-t) [1, 4]: 7012.03 ng·h/mL and 9412.84 ng·h/mL
AUC(0-∞) [1, 4]: 7126.47 ng·h/mL and 9616.11 ng·h/mL
Cmax [1, 4]: 2014.04 ng/mL and 2249.28 ng/mL
MRT(0-t) [1, 4]: 2.19 h and 2.43 h
MRT(0-∞) [1, 4]: 2.32 h and 2.59 h
t1/2 [1, 4]: 1.27 h and 1.34 h
AUC(0-inf) [1, 5]: 7840 ng·h/mL
clearance [1, 5]: 4.25 mL/min/kg
AUC(0-t) ([1]; male, ICR, mouse, plasma, iv, 2 mg/kg, ICR mice, IV 2 mg/kg, individual animals 301-303, read-out: AUC(0-t)): 7270 ng·h/mL
Cmax ([1]; male, ICR, mouse, plasma, iv, 2 mg/kg, ICR mice, IV 2 mg/kg, individual animals 301-303, read-out: Cmax): 3900 ng/mL
MRT last [1, 5]: 1.6 h
MRT inf [1, 5]: 2.09 h
Tmax [1, 5]: 4.8 min
Vd [1, 5]: 0.61 L/kg
half-life [1, 5]: 99 min
AUC(0-inf) [1, 6]: 7730 ng·h/mL
clearance [1, 6]: 4.32 mL/min/kg
AUC(0-t) ([1]; male, ICR, mouse, plasma, iv, 2 mg/kg, ICR mice, IV 2 mg/kg, mean of 3 animals, read-out: AUC(0-t)): 7040 ng·h/mL
Cmax ([1]; male, ICR, mouse, plasma, iv, 2 mg/kg, ICR mice, IV 2 mg/kg, mean of 3 animals, read-out: Cmax): 3580 ng/mL
MRT last [1, 6]: 1.65 h
MRT inf [1, 6]: 2.29 h
Tmax [1, 6]: 4.98 min
Vd [1, 6]: 0.68 L/kg
half-life [1, 6]: 109 min
AUC(0-inf) [1, 7]: 9970 ng·h/mL
AUC(0-t) ([1]; male, ICR, mouse, plasma, po, 5 mg/kg, ICR mice, PO 5 mg/kg, individual animals 401-403, read-out: AUC(0-t)): 9390 ng·h/mL
Cmax ([1]; male, ICR, mouse, plasma, po, 5 mg/kg, ICR mice, PO 5 mg/kg, individual animals 401-403, read-out: Cmax): 2160 ng/mL
MRT last [1, 7]: 2.64 h
MRT inf [1, 7]: 3.12 h
Tmax [1, 7]: 60 min
half-life [1, 7]: 112 min
AUC(0-inf) [1, 8]: 8910 ng·h/mL
AUC(0-t) ([1]; male, ICR, mouse, plasma, po, 5 mg/kg, ICR mice, PO 5 mg/kg, mean of 3 animals, read-out: AUC(0-t)): 8600 ng·h/mL
Cmax ([1]; male, ICR, mouse, plasma, po, 5 mg/kg, ICR mice, PO 5 mg/kg, mean of 3 animals, read-out: Cmax): 2140 ng/mL
MRT last [1, 8]: 2.42 h
MRT inf [1, 8]: 2.67 h
Tmax [1, 8]: 60 min
half-life [1, 8]: 89.4 min
AUC(0-t) ([1]; male, ICR, mouse, plasma, po, 5 mg/kg, oral intragastric administration 5 mg/kg, read-out: AUC0-t): 8600 ng·h/mL
IC50 [2]: 96.2 nM
